Source: patent US20250314636A1, “METHOD OF PREPARING AND EXPANDING A POPULATION OF IMMUNE CELLS FOR CANCER THERAPY, POTENCY ASSAY FOR TUMOR RECOGNITION, BIOLOGICAL VACCINE PREPARATION AND EPITOPETARGET FOR ANTIBODIES” (FUNDAÇÃO D. ANNA DE SOMMER CHAMPALIMAUD E DR. CARLOS MONTEZ …, priority 2022, published 2025)

What was measured:
[1] = system: TIL; assay: Peptide recognition assay in TIL (IFN-γ ELISA / IL-17 in supernatant, 7 days); type: cell-based, human; set-up: IFN-γ production, TIL: unit not given here; conditions: for Pancreatic TIL D1599 IFN-y / Pancreatic TILD1599 IL 17: Pancreatic TIL D1599; for IFN-γ production, TIL: 10e4 TIL/well co-cultured with the peptide for 7 days, supernatant tested
Description: (§1) Peptides from tumor-associated antigens (TAAs), listed in Table 5 were placed at 1 ug/well in duplicates using anti-CD3 at 30 ng/mL as well as PHA at 5 μg/mL as positive controls.
(§2) The differences in TIL versus PBMCs can also be defined by peptide reactivity. 10e^4 TIL or 10e^4 PBMC/well were co-cultured with the peptides listed in Table 11 below for 7 days and the supernatants were tested for IFN-γ production.

[2] = system: PBMCs; assay: Peptide recognition assay in PBMCs (IFN-γ in supernatant, 7 days); type: cell-based, human; conditions: 10e4 PBMC/well co-cultured with the peptide for 7 days, supernatant tested
Description: as §1, §2

Sequence	Pancreatic TIL D1599 IFN-y [1]	Pancreatic TILD1599 IL 17 [1]	IFN-γ production, TIL [1]	IFN-γ production, PBMCs [2]
SVSTMDALRGLLPVL [Mesothelin MPF-17]	0 pg/mL	0 pg/mL		
LDVLYPKARLAFQNM [Mesothelin GPI P14]	0 pg/mL	11 pg/mL		
LVVVGAGAVGKSALT [KRAS_G13A]	19 pg/mL	0 pg/mL		
PVTSTSSASTGHATP [MUC4-P8 [WT]]	0 pg/mL	2 pg/mL		
KLVVVGAGDVGKSALTI [Kras_P9 (G13D)]	0 pg/mL	3 pg/mL		
KLVVVGAGGVGKSALTI			0	0
VTDASSASTGH [MUC4-P2_fitted for HLA-A*01:01]	0 pg/mL	14 pg/mL		
PVTSPSSESTGHAIP [MUC4-P9 [Mut]]	0 pg/mL	0 pg/mL		
PVTSLSSASTGDTTP			0	0
PVTSLSSASTGDTTP [MUC4-P4 [WT]]	17 pg/mL	0 pg/mL		
YKLVVVGAGGVGKSALT [Kras_P1 (G12 WT)]	0 pg/mL	37 pg/mL		
DILDTAGLEEYSAMR			0	0
KLVVVGAGGVGKSALTI [Kras_P8 (G13 WT)]	0 pg/mL	108 pg/mL		
YKLVVVGADGVGKSALT [Kras_P3 (G12D)]	0 pg/mL	0 pg/mL		
LVVVGAGSVGKSALT			0	0
FVAESAEVLLPRLVS			0	0
LDILDTAGHEEYSAMRD			0	0
LQGGIPNGYLVLDLS [Mesothelin GPI P40 (596-610)]	0 pg/mL	0 pg/mL		
IPFIETSVKTRQRVE [KRAS_A146V]	5 pg/mL	0 pg/mL		
LLPRGAPERQRLLPA			0	0
KLVVVGAGDVGKSALTI			0	0
LVVVGAGVVGKSALT			0	0

Sequence	Pancreatic TIL D1599 IFN-y [1]	Pancreatic TILD1599 IL 17 [1]	IFN-γ production, TIL [1]	IFN-γ production, PBMCs [2]
LDILDTAGKEEYSAMRD [Kras_P11 (Q61K)]	0 pg/mL	0 pg/mL		
LDILDTAGQEEYSAMRD			0	0
TTPLPVTSPSSASSG [MUC4-P6 [WT]]	0 pg/mL	0 pg/mL		
PVTSTSSVSTGHATP			0	0
TLGEFLKLDRERAKN			0	0
LVVVGAGAVGKSALT			0	0
SVSTMDALRGLLPVL			0	0
YKLVVVGAAGVGKSALT [Kras_P7 (G12A)]	0 pg/mL	65 pg/mL		
ELNNALQNL [ESAT6, reference compound]	0 pg/mL	0 pg/mL		
PMVLVGNNCDLPSRT [KRAS_K117N]	32 pg/mL	0 pg/mL		
FVAESAEVLLPRLVS [Mesothelin MPF-14]	0 pg/mL	0 pg/mL		
LLPRGAPERQRLLPA [Mesothelin MPF-11]	0 pg/mL	0 pg/mL		
TTPLPVTIPSSASSG [MUC4-P5 [Mut][WT]]	12 pg/mL	0 pg/mL		
PMVLVGNNCDLPSRT			0	0
LDILDTAGHEEYSAMRD [Kras_P12 (Q61H)]	0 pg/mL	4 pg/mL		
YEQLDVLKHKLDELY [Mesothelin GPI P5]	0 pg/mL	0 pg/mL		
TPLPVTDASSASTGH			0	0
YKLVVVGAAGVGKSALT			0	0
TPLPVTDTSSASTGD			0	0
LAFQPPISNHPAPEY [SMAD4 [D1 private peptide]]	0 pg/mL	0 pg/mL		
VTDTSSASTGH [MUC4-P1_fitted for HLA-A*01:01]	0 pg/mL	24 pg/mL		
MQEALSGTPCLLGPG			0	0

Sequence	Pancreatic TIL D1599 IFN-y [1]	Pancreatic TILD1599 IL 17 [1]	IFN-γ production, TIL [1]	IFN-γ production, PBMCs [2]
YEQLDVLKHKLDELY			0	0
KLVVVGAVGVGKSAL [KRAS_G12F]	36 pg/mL	0 pg/mL		
YKLVVVGARGVGKSALT [Kras_P4 (G12R)]	0 pg/mL	0 pg/mL		
TTPLPVTSPSSASSG			0	0
LVVVGAGRVGKSALT			0	0
TPLPVTDTSSASTGH [MUC4-P2 [WT]]	0 pg/mL	1 pg/mL		
LVVVGAGCVGKSALT			0	0
ELNNALQNL			6	0
YKLVVVGAGGVGKSALT			0	0
TPLPVTDNSSASTGD [MUC4-P11 [Mut]]	19 pg/mL	0 pg/mL		
LDILDTAGREEYSAMRD			150	0
YKLVVVGAVGVGKSALT [Kras_P2 (G12V)]	0 pg/mL	2 pg/mL		
VTDTSSASTGH			0	0
YKLVVVGACGVGKSALT			0	0
YKLVVVGAVGVGKSALT			0	0
PVTSPSSASTGHAIP [MUC4-P10 [WT]]	5 pg/mL	0 pg/mL		
YKLVVVGACGVGKSALT [Kras_P6 (G12C)]	0 pg/mL	0 pg/mL		
YKLVVVGARGVGKSALT			0	0
LVVVGAVGVGKSALT [KRAS fitted for HLA-DQB1*06:02]	0 pg/mL	0 pg/mL		
VTDASSASTGH			0	0
ALACWGVRGSLLSEA			0	0
LVVVGAGRVGKSALT [KRAS_G13R]	29 pg/mL	0 pg/mL		

Sequence	Pancreatic TIL D1599 IFN-y [1]	Pancreatic TILD1599 IL 17 [1]	IFN-γ production, TIL [1]	IFN-γ production, PBMCs [2]
HRLSEPPEDLDALPL			0	0
LAFQPPISNHPAPEY			0	0
LDILDTAGQEEYSAMRD [Kras_P10 (Q61 WT)]	0 pg/mL	0 pg/mL		
GIPFIETSAKTRQRVED [Kras_P14 (A146 WT)]	0 pg/mL	0 pg/mL		
HRLSEPPEDLDALPL [Mesothelin MPF-8]	0 pg/mL	0 pg/mL		
MQEALSGTPCLLGPG [Mesothelin GPI P40 (601-605)]	0 pg/mL	120 pg/mL		
LVVVGAGCVGKSALT [KRAS_G13C]	26 pg/mL	0 pg/mL		
MALPTARPLLGSCGT [Mesothelin MPF-1]	0 pg/mL	0 pg/mL		
WAVRPQDLDTCDPRQ [Mesothelin GPI P13]	0 pg/mL	0 pg/mL		
PVTSTSSVSTGHATP [MUC4-P7 [Mut][WT]]	0 pg/mL	0 pg/mL		
TLGEFLKLDRERAKN [Survivin (97-111)]	0 pg/mL	0 pg/mL		
LVVVGAGVVGKSALT [KRAS_G13V]	10 pg/mL	0 pg/mL		
DILDTAGLEEYSAMR [KRAS_Q61L]	24 pg/mL	0 pg/mL		
TPLPVTDTSSASTGD [MUC4-P12 [WT]]	34 pg/mL	0 pg/mL		
GIPFIETSTKTRQRVED [Kras_P15 (A146T)]	0 pg/mL	0 pg/mL		
ALACWGVRGSLLSEA [Mesothelin MPF-12]	0 pg/mL	0 pg/mL		
YKLVVVGASGVGKSALT [Kras_P5 (G12S)]	14 pg/mL	0 pg/mL		
TPLPVTDASSASTGH [MUC4-P1 [Mut][WT]]	0 pg/mL	3 pg/mL		
LDILDTAGREEYSAMRD [Kras_P13 (Q61R)]	0 pg/mL	0 pg/mL		
LVVVGAGSVGKSALT [KRAS_G13S]	24 pg/mL	0 pg/mL		
